Data as given in ChEMBL document CHEMBL1773064, “Engineered Thermoplasma acidophilum factor F3 mimics human aminopeptidase N (APN) as a target for anticancer drug development” (Bioorg Med Chem, 2011).
pIC50: −log10 of the molar value.

What was measured:
[1] = Solubility of compound; assay type: physicochemical
[2] = Inhibition of Thermoplasma acidophilum ATCC25905 recombinant Tricorn protease-interacting factor F3 E101Q, N261T mutant using Leu-p-nitroanilide as a substrate after 30 mins

solubility [1]: soluble | pIC50 [2]: 4.52
Structure (SMILES): NC(Cc1ccccc1)C(=O)NC(CCCCNC(=O)OCc1ccccc1)C(=O)NO (configuration not stated)
